The results in this text go back to patent publication US10246444B2, “1,2-dithiolane and dithiol compounds useful in treating mutant EGFR-mediated diseases and conditions” (Sabila Biosciences LLC, priority 2017, dated 2019).

One may read the IC50 as the concentration at which inhibition is half-maximal.

The target in one test is EGFR E746-A750del (Homo sapiens (Human), UniProt P00533, DEL746-750). Description: KINOMEscan competition binding assay (Kd). Particulars: KINOMEscan binding constant; read-out: Kd Activity Level (EGFR E746-A750del).
In test [1] the target is T1, EGFR (L858R) (Homo sapiens (Human), UniProt P00533, L858R). Description: KinaseSeeker rabbit reticulocyte lysate competition binding assay (IC50).
A further test addresses HER2 (Homo sapiens (Human), UniProt P04626). The test is described as above.
Test [2] deals with various mutant EGF receptors (Homo sapiens, UniProt P00533, A750P/DEL747-749). Description: KINOMEscan competition binding assay (Kd), Example 40 in various mutant EGF receptors (Table 17).
For test [3], the target named is various mutant EGF receptors (Homo sapiens, UniProt P00533, L861Q). The test is described as above.
For test [4], the target named is various mutant EGF receptors (Homo sapiens, UniProt P00533, DEL747-751/INS746S). The test is described as above.
Test [5] concerns the target various mutant EGF receptors (Homo sapiens, UniProt P00533, G719C). The test is described as above.
The target in test [6] is various mutant EGF receptors (Homo sapiens, UniProt P00533, DEL747-752/P753S). The test is described as above.
Test [7] concerns the target various mutant EGF receptors (Homo sapiens, UniProt P00533, G719S). The test is described as above.
The target of another test is EGFR S752-I759del (Homo sapiens (Human), UniProt P00533, DEL752-759). Description: KINOMEscan competition binding assay (Kd). Particulars: KINOMEscan binding constant; read-out: Kd Activity Level (EGFR S752-I759del).
A further test addresses EGFR WT (Homo sapiens (Human), UniProt P00533). Kind of test: KinaseSeeker rabbit reticulocyte lysate competition binding assay (IC50).
The target in test [8] is kinase (Homo sapiens, UniProt Q15303). Kind of test: Radioisotope filter binding assay (33P-ATP kinase activity, IC50). Conditions: HER 4, read-out: IC50 Activity level HER 4. The class given is biochemical. The protocol: (§1) Radioisotope Filter Binding Assay: In this assay format, it directly detects the true product without the use of modified substrates or coupling enzymes (Uitdehaag, J. C. et al. Br. J. Pharmacol. 2012, 166, 858-876; Hastie, C. J. et al. Nat. Protoc. 2006, 1, 968-971) according to equation 1.
(§2) The protocol calls for test compound of the invention to be incubated with kinase, substrate, cofactors, and radio-isotope-labeled ATP (^33P-gamma-ATP). The reaction mixtures are then spotted onto filter papers which bind the radioisotope labeled catalytic product. Unreacted phosphate is removed via washing. The reagents used include base reaction buffer; 20 mM Hepes (pH 7.5), 10 mM MgCl2, 1 mM EGTA, 0.02% Brij35, 0.02 mg/ml BSA, 0.1 mM Na3VO4, 2 mM DTT, 1% DMSO. The reaction procedure include the following steps: (1) prepare indicated substrate in freshly prepared base reaction buffer, (2) deliver any required cofactors to the substrate solution above, (3) deliver indicated kinase into the substrate solution and gently mix, (4) deliver compounds in DMSO into the kinase reaction mixture by Acoustic technology (Echo550; nanoliter range), incubate for 20 minutes at room temperature, (5) deliver ^33P-ATP (specific activity 10 μCi/μL) into the reaction mixture to initiate the reaction, (6) incubate kinase reaction for 2 hours at room temperature, (7) reactions are spotted onto P81 ion exchange paper, (8) detect kinase activity by filter-binding method.

The next test concerns the target EGFR WT (wild type EGFR) (Homo sapiens (Human), UniProt P00533). Description: KINOMEscan competition binding assay (Kd). Particulars: read-out: Kd Activity Level (EGFR WT).
The target of test [9] is T1, EGFR (L858R). Description: KINOMEscan competition binding assay (Kd). Particulars: read-out: Kd Activity Level (EGFR L858R).
For a further test, the target named is EGFR L858R/T790M (Homo sapiens (Human), UniProt P00533, L858R/T790M). Description: KINOMEscan competition binding assay (Kd). Particulars: KINOMEscan binding constant; read-out: Kd Activity Level (EGFR L858R/T790M).
The target in test [10] is kinase (Homo sapiens, UniProt P00533, L858R). Description: Radioisotope filter binding assay (33P-ATP kinase activity, IC50). In kind it is biochemical. Conditions: EGFR L858R, read-out: IC50 Activity level EGFR L858R. The procedure:
as §1, §2

In test [11] the target is kinase (Homo sapiens, UniProt P00533). Described as above. In kind it is biochemical. Particulars: EGFR WT, read-out: IC50 Activity level EGFR WT. The protocol: as §1, §2
Test [12] concerns the target kinase (Homo sapiens, UniProt P00533, DEL746-750). Described as above. In kind it is biochemical. Particulars: EGFR E746-A750del, read-out: IC50 Activity level EGFR E746-A750del. The procedure:
as §1, §2

In test [13] the target is kinase. The description is as above. Particulars: HER 2, read-out: IC50 Activity level HER 2. In kind it is biochemical. The protocol: as §1, §2

Sequence of kinase (Homo sapiens, UniProt P00533, DEL746-750) (P00533 with tags, fused parts or gaps DEL746-750 limits assumed): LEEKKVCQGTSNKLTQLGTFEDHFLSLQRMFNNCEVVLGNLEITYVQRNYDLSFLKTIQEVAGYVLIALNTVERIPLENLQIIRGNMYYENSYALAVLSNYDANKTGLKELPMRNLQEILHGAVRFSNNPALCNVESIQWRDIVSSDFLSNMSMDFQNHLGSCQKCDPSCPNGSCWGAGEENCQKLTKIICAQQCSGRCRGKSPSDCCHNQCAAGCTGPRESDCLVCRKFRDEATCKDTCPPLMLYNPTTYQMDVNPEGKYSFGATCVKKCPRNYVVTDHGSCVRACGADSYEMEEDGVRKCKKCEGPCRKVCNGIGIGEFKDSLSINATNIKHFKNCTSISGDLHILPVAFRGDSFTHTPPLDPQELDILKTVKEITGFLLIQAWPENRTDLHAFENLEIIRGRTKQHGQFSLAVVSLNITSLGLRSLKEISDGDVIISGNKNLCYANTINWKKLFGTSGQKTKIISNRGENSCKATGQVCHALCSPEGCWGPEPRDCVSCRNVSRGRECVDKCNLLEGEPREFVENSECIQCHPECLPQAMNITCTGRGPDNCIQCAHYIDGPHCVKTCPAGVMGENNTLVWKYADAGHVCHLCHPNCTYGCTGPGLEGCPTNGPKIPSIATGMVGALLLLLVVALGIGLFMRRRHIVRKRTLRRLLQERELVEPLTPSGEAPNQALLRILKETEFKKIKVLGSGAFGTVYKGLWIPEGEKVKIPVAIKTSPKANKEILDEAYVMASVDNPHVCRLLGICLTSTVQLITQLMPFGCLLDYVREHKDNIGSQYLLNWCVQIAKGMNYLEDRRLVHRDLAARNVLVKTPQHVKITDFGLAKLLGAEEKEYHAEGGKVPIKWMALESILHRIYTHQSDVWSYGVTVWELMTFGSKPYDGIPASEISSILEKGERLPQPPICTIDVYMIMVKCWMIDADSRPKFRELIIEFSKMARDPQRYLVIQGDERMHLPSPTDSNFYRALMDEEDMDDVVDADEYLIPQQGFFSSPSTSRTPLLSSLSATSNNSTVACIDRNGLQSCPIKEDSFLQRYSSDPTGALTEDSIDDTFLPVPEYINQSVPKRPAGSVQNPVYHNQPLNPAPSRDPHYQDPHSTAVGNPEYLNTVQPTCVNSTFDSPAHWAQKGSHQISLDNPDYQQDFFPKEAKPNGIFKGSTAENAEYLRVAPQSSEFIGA
Sequence of EGFR E746-A750del (P00533 other isoform, or with tags, fused parts or gaps del E746-A750): as the sequence (P00533 with tags, fused parts or gaps DEL746-750 limits assumed) above
Sequence of HER2 (P04626 23-1255): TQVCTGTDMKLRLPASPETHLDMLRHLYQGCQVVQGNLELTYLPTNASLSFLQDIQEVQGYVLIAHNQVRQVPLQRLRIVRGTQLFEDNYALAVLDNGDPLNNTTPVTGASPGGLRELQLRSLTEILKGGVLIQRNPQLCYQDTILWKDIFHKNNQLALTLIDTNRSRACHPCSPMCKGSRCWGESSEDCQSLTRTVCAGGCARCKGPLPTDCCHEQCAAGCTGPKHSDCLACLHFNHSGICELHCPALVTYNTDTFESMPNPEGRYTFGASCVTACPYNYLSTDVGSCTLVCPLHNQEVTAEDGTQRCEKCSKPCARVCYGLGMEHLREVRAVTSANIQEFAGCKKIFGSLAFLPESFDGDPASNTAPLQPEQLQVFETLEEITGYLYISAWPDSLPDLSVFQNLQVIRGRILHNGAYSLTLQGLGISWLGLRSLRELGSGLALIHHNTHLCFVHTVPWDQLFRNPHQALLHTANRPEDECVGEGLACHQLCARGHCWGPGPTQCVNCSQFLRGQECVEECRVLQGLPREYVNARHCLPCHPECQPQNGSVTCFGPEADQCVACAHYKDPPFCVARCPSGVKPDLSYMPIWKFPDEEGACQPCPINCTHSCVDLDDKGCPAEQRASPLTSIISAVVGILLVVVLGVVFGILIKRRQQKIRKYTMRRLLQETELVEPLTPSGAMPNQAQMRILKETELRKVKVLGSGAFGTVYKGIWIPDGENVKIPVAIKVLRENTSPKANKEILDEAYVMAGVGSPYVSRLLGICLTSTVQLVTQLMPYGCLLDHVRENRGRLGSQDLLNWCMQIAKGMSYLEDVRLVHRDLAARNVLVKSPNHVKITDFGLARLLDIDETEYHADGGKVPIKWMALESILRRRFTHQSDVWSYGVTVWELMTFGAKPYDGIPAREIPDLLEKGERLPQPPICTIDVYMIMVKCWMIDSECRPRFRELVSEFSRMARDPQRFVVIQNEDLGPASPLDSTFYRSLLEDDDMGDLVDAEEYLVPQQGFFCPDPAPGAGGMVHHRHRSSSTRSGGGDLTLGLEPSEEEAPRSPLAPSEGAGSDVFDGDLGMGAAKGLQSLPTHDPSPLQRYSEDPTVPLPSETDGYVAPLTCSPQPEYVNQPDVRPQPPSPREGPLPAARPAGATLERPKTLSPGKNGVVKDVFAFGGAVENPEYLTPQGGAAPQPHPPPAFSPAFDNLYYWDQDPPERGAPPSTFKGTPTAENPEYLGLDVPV
Sequence of EGFR S752-I759del (P00533 other isoform, or with tags, fused parts or gaps del 1-668/del 752-759/del 1012-1210 limits assumed): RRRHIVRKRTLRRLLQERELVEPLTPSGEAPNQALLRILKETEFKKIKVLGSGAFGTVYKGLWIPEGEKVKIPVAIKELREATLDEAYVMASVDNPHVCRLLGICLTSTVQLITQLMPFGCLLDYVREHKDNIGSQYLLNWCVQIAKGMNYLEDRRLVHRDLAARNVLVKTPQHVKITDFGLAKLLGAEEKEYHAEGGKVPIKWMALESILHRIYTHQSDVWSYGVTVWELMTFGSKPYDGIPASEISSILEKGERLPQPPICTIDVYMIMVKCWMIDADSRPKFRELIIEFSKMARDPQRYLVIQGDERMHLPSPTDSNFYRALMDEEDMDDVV
Sequence of kinase (Homo sapiens, UniProt P00533, L858R) (P00533 25-1210 L858R limits assumed): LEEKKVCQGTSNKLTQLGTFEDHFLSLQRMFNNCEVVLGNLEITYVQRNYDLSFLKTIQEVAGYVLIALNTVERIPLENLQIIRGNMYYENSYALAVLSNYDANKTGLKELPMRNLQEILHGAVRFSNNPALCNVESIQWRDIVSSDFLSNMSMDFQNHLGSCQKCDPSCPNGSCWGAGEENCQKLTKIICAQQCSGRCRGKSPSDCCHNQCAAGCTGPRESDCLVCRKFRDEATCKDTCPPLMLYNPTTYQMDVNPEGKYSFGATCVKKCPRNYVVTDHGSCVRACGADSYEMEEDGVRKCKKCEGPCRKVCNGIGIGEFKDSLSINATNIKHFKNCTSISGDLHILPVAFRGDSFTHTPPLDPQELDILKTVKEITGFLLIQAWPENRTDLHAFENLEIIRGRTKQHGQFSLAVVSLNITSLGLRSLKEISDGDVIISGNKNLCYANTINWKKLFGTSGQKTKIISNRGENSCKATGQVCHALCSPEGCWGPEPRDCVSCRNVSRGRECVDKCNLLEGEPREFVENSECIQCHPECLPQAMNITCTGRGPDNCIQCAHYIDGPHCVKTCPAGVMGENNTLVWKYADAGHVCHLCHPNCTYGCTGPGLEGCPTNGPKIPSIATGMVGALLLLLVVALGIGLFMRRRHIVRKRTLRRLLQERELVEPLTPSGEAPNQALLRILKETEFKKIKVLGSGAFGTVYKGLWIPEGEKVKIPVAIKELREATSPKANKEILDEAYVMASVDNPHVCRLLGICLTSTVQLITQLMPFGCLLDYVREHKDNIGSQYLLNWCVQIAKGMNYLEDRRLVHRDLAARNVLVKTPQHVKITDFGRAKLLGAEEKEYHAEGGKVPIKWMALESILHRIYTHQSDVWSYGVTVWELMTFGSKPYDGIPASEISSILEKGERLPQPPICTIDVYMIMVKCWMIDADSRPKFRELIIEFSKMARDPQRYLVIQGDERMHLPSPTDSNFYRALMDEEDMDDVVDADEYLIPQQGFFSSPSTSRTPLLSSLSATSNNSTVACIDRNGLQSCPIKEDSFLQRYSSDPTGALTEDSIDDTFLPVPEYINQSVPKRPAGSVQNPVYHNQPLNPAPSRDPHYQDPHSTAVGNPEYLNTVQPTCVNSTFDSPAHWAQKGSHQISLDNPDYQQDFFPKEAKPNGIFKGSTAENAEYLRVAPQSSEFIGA

Consider `CCOc1cc2ncc(C#N)c(Nc3ccc(OCc4cccc(F)c4)c(Cl)c3)c2cc1NC(=O)CC1CCSS1` (centres unmarked) [Example 40], for which the Kd (on EGFR E746-A750del; in [2]; in test [3]; in test [4]; in [5]; in [6]) was 1 to 99 nM each time. For the same molecule, the Kd (in test [7]; on EGFR S752-I759del) was 1 to 99 nM throughout. The IC50 at EGFR (L858R) [1] was 1 to 99 nM; at HER2, 100 to 999 nM; at EGFR WT, 100 to 999 nM.

In the case of `N#Cc1cnc2ccc(NC(=O)C3CSSC3)cc2c1Nc1ccc(OCc2cccc(F)c2)c(Cl)c1` [Example 61, N-(4-((3-Chloro-4-((3-fluorobenzyl)oxy)phenyl)amino)-3-cyanoquinolin-6-yl)-1,2-dithiolane-4-carboxamide], the IC50 on kinase [8] lay within 100 to 999 nM.

As to `N#Cc1cnc2ccc(NC(=O)CC3CCSS3)cc2c1Nc1ccc(OCc2cccc(F)c2)c(Cl)c1` (centres unmarked) [Example 62, N-(4-((3-Chloro-4-((3-fluorobenzyl)oxy)phenyl)amino)-3-cyanoquinolin-6-yl)-2-(1,2-dithiolan-3-yl)acetamide], the 50% inhibitory concentration (IC50) fell in the range of 1 to 99 nM at EGFR (L858R) [1], 100 to 999 nM at EGFR WT and 1 to 99 nM at kinase [8].

Consider `N#Cc1cnc2cc(OC[C@@H](O)CO)c(NC(=O)C[C@@H]3CCSS3)cc2c1Nc1ccc(OCc2cccc(F)c2)c(Cl)c1` [Example 85, N-(4-((3-Chloro-4-((3-fluorobenzyl)oxy)phenyl)amino)-3-cyano-7-((S)-2,3-dihydroxypropoxy)quinolin-6-yl)-2-(1,2-dithiolan-3R-yl)acetamide], for which the Kd on EGFR E746-A750del is 1 to 99 nM; on EGFR WT (wild type EGFR), 1 to 99 nM; at EGFR S752-I759del, 1 to 99 nM; on EGFR (L858R) [9] it was 1 to 99 nM; at EGFR L858R/T790M it was over 10000 nM. Besides, the IC50 at EGFR (L858R) [1] was 1 to 99 nM; on HER2, 100 to 999 nM; on EGFR WT, 100 to 999 nM.

For `N#Cc1cnc2cc(OC[C@@H](O)CO)c(NC(=O)C[C@H]3CCSS3)cc2c1Nc1ccc(OCc2cccc(F)c2)c(Cl)c1` [Example 86, N-(4-((3-Chloro-4-((3-fluorobenzyl)oxy)phenyl)amino)-3-cyano-7-((S)-2,3-dihydroxypropoxy)quinolin-6-yl)-2-(1,2-dithiolan-3S-yl)acetamide], the Kd is 1 to 99 nM on EGFR E746-A750del; 1 to 99 nM at EGFR WT (wild type EGFR); 1 to 99 nM at EGFR S752-I759del; 1 to 99 nM at EGFR (L858R) [9]; over 10000 nM at EGFR L858R/T790M. Further, the IC50 lay in the range of 1 to 99 nM on EGFR (L858R) [1], 100 to 999 nM at HER2 and 100 to 999 nM on EGFR WT.

On to `N#Cc1cnc2cc(OC[C@H](O)CO)c(NC(=O)CC3CSSC3)cc2c1Nc1ccc(OCc2cccc(F)c2)c(Cl)c1` [Example 90, (R)—N-(4-((3-Chloro-4-((3-fluorobenzyl)oxy)phenyl)amino)-3-cyano-7-(2,3-dihydroxypropoxy)quinolin-6-yl)-2-(1,2-dithiolan-4-yl)acetamide], for which the IC50 lay in the range of 1 to 99 nM at EGFR (L858R) [1]; 100 to 999 nM on EGFR WT; 100 to 999 nM at kinase [10]; 1 to 99 nM on kinase [11]; 1 to 99 nM on kinase [8]; 1000 to 10000 nM on kinase [12].

Consider `N#Cc1cnc2cc(OC[C@@H](O)CO)c(NC(=O)CC3CSSC3)cc2c1Nc1ccc(OCc2cccc(F)c2)c(Cl)c1` [Example 92, (S)—N-(4-((3-Chloro-4-((3-fluorobenzyl)oxy)phenyl)amino)-3-cyano-7-(2,3-dihydroxypropoxy)quinolin-6-yl)-2-(1,2-dithiolan-4-yl)acetamide], for which the Kd at EGFR E746-A750del and at EGFR S752-I759del was 1 to 99 nM throughout. For the same molecule, the IC50 at EGFR (L858R) [1] is 1 to 99 nM; at HER2 it was 100 to 999 nM; at EGFR WT, 100 to 999 nM; at kinase [13] it was 100 to 999 nM; at kinase [10], 100 to 999 nM; at kinase [11], 1 to 99 nM. For the same molecule, the IC50 at kinase [8] lay in the range of 1 to 99 nM; at kinase [12], 1000 to 10000 nM.

As for `N#Cc1cnc2cc(OC[C@H](O)CO)c(NC(=O)C3CSSC3)cc2c1Nc1ccc(OCc2cccc(F)c2)c(Cl)c1` [Example 95, (R)—N-(4-((3-Chloro-4-((3-fluorobenzyl)oxy)phenyl)amino)-3-cyano-7-(2,3-dihydroxypropoxy)quinolin-6-yl)-1,2-dithiolane-4-carboxamide], the IC50 was 1 to 99 nM on EGFR (L858R) [1]; 100 to 999 nM at EGFR WT; 100 to 999 nM at kinase [10]; 1 to 99 nM at kinase [11]; 1000 to 10000 nM on kinase [12].

Consider `N#Cc1cnc2cc(OC[C@@H](O)CO)c(NC(=O)C3CSSC3)cc2c1Nc1ccc(OCc2cccc(F)c2)c(Cl)c1` [Example 98, (S)—N-(4-((3-Chloro-4-((3-fluorobenzyl)oxy)phenyl)amino)-3-cyano-7-(2,3dihydroxypropoxy)quinolin-6-yl)-1,2-dithiolane-4-carboxamide], for which the IC50 is 1 to 99 nM at EGFR (L858R) [1]; 100 to 999 nM at EGFR WT; 100 to 999 nM at kinase [13]; 1 to 99 nM at kinase [10]; 1 to 99 nM at kinase [11]; 1 to 99 nM at kinase [8]. In addition, the IC50 at kinase [12] was in the range of 100 to 999 nM.
